From publication PMC11220592 (Chemical Science, 2024)
Entries after “also recorded” stand apart in the source; their conditions may differ. Structures can show the parent of a compound that is named as a salt.

Legend:
SARS-CoV-2 = details: read-out: EC50 (antiviral activity); previously reported; cited from earlier work
SARS-CoV-2 Omicron BA.5 = test: Viral load reduction assay; format: cell-based; details: Fig. S7
VeroE6 cells = test: Cellular bismuth uptake; format: cell-based, African green monkey; details: 24 hours, ICP-MS

| Compound | EC50 (SARS-CoV-2) [nM] | antiviral activity in virus-infected cells (SARS-CoV-2 Omicron BA.5) | cellular uptake of Bi(III) (VeroE6 cells) |
| --- | --- | --- | --- |
| CNC(=C[N+](=O)[O-])NCCSCc1ccc(CN(C)C)o1 [RBC, ranitidine bismuth citrate] | 2300 |  |  |
| Nc1ccc([O-])c(=O)cc1.Nc1ccc([O-])c(=O)cc1.Nc1ccc([O-])c(=O)cc1.[Bi+3] [Bi(Tro-NH2)3, Bi(5-aminotropolonate)3] |  | did not show antiviral activity as good as that at the enzyme level; also recorded: did not show potent antiviral activity in virus-infected cells | poor cellular uptake of Bi(III) |
